Reference: US12576051B2, “Methods and composition for treating respiratory obstructive diseases” (The Regents of the University of California, priority 2019, dated 2026)
Counter-ions that a name gives are not always drawn.

B1: rhDNase: recombinant human DNase, an enzyme that breaks down extracellular DNA in mucus (protein, UniProt P24855 23-282, looked up)
Deoxyribonuclease-1: LKIAAFNIQTFGETKMSNATLVSYIVQILSRYDIALVQEVRDSHLTAVGKLLDNLNQDAPDTYHYVVSEPLGRNSYKERYLFVYRPDQVSAVDSYYYDDGCEPCGNDTFNREPAIVRFFSRFTEVREFAIVPLHAAPGDAVAEIDALYDVYLDVQEKWGLEDVMLMGDFNAGCSYVRPSQWSSIRLWTSPTFQWLIPDSADTTATPTHCAYDRIVVAGMLLRGAVVPDSALPFNFQAAYGLSDQLAQAISDHYPVEVMLK

Tests used:
secreted Muc5ac mucin = experiment: Mucolytic activity on secreted Muc5ac mucin of open porcine trachea sections (western blot); conditions: for breaking down the mucus (secreted Muc5ac western blot) / native Muc5ac levels on epithelial luminal surfaces (immunoblot): 2 mM; for breaking down the mucus (secreted Muc5ac western blot): 5 minutes at 37° C., then 7% NaCl inhaled solution 5 mins, FIG. 19; for native Muc5ac levels on epithelial luminal surfaces (immunoblot): HCO3-Ringer with PGE2 (1 uM), 10 minutes at 37° C., FIG. 18
Method: FIG. 18 provides the mucolytic activity of compounds on secreted Muc5ac mucin. Epithelial luminal surface of open porcine trachea sections (˜2 cm^2) were covered with HCO3-Ringer solution ([…]) containing PGE2 (1 uM), and alcian blue (0.02%), with or without compounds at a 2 mM final concentration, and incubated for 10 minutes at 37° C. Equal volumes of each collected sample were separated on vertical electrophoresis, and then transfer to an immobilon-P membrane for western blot analysis. […] Densitometric signal of the untreated sample, as control, was normalized to 100% (% arbitrary units).
Epithelial luminal surface of open porcine trachea sections (˜2 cm^2) were covered with […] of HCO3-Ringer solution containing PGE2 (1 uM), in the presence or absence of compounds at a 2 mM final concentration, and incubated for 5 minutes at 37° C. Afterwards, […] of sterile 7% NaCl inhaled solution was added and incubated for another 5 mins at 37° C. Equal volumes of each collected sample were separated on vertical electrophoresis, and then transferred to an immobilon-P membrane for western blot analysis. […] Densitometric signal of the non-treated sample, as control, was normalized to 100% (% arbitrary units).

porcine airway = experiment: Ex vivo porcine airway models (summary statement)
Text: Abnormal mucus accumulation in airways has deleterious, and fatal consequence in patients suffering from respiratory obstructive diseases, such as cystic fibrosis (CF), COPD and asthma. Therefore, there is a need for therapies aimed at decreasing mucus accumulation to facilitate airway mucus clearance.

[1] = system: Muc5ac mucin from porcine airway mucus; experiment: Mucolytic effect on Muc5ac mucin from porcine airway mucus (western blot, densitometry); assay type: biochemical; conditions: 2 mM, 30 mins at 37° C.; compound preincubated in HCO3-Ringer, HCO3-Ringer/acetic acid or acetate buffer pH 4.5
Method: (§1) (Upper panel) Identification of Muc5ac mucin (black arrow) by western blot, from airway mucus sample collected in HCO3-Ringer and treated with or without 2 mM of compound 646 for 30 mins at 37° C. Lane CTRL, untreated sample as control. Lane Bic, sample treated with compound preincubated in HCO3-Ringer; lane Bic/Ac, sample treated with compound preincubated with 1:1 HCO3-Ringer/Acetic acid 0.1N; lane Ac, sample treated with compound preincubated in acetate buffer 1M, pH 4.5. Lower panel, densitometric analysis of the protein bands identified with the Muc5ac mucin antibody. Densitometric signal of the sample control (CTRL) was normalized as 100% (% arbitrary units).
as §1, with “647” for “646”, “4.5, as described under Methods.” for “4.5.”, “units). Control is pH 8, Bic 7.4, Bic/AC 6.9 AND AC 6.2” for “units).”
as §1, with “655” for “646”
as §1, with “compounds 656” for “compound 646”

[2] = system: respiratory secreted mucus; experiment: Mucolytic activity on respiratory secreted mucus of open porcine trachea sections (alcian blue); conditions: 2 mM, HCO3-Ringer with PGE2 (1 uM) and alcian blue (0.02%), 10 minutes at 37° C., untreated showed clusters of secreted mucus
Method: (§2) FIG. 16 provides the mucolytic activity of compounds 646 and 647 on respiratory secreted mucus. Small sections of open porcine trachea (˜2 cm^2) were covered with HCO3-Ringer solution ([…]) containing PGE2 (1 uM) and alcian blue (0.02%), with or without compounds at a 2 mM final concentration, and then incubated for 10 minutes at 37° C.
as §2, with “17” for “16”, “655” for “646”, “656” for “647”

[3] = cited from earlier work

Molecule	native Muc5ac levels on epithelial luminal surfaces (immunoblot) (secreted Muc5ac mucin)	accumulation of viscous mucus and mucociliary clearance (porcine airway)	influence of acidic and basic conditions on mucolytic activity on porcine Muc5ac mucin [1]	other results
[2H]C(CN)SSC([2H])CN (stereo not drawn) [Compound 647, 2,2′-disulfanediylbis(ethan-2-d-1-amine) dihydrochloride]	decreased native Muc5ac levels	prevented accumulation of viscous mucus and improves mucociliary clearance	enhanced under acidic conditions	breaking down the mucus (secreted Muc5ac western blot) (secreted Muc5ac mucin): consistently works well in breaking down the mucus; appearance of secreted mucus on trachea sections ([2]; dihydrochloride): dispersed clusters of secreted mucus
Cl.Cl.[2H]C([2H])(CN)SSC([2H])([2H])CN [Compound 655, 2,2′-disulfanediylbis(ethan-2,2-d2-1-aminium) chloride]	decreased native Muc5ac levels	prevented accumulation of viscous mucus and improves mucociliary clearance	enhanced under acidic conditions	breaking down the mucus (secreted Muc5ac western blot) (secreted Muc5ac mucin): consistently works well in breaking down the mucus; mucolytic activity in comparison (secreted Muc5ac mucin; comparison between deuterated cystamine compounds): better mucolytic activity than Compound 647; appearance of secreted mucus on trachea sections [2]: dispersed secreted mucus
Cl.[2H]C([2H])(S)CN [Compound 656, 2-mercaptoethan-2,2-d2-1-aminium chloride]	decreased native Muc5ac levels	prevented accumulation of viscous mucus and improves mucociliary clearance	enhanced under acidic conditions	appearance of secreted mucus on trachea sections [2]: dispersed secreted mucus
CC(C)(C)c1cc(C(C)(C)C)c(NC(=O)c2c[nH]c3ccccc3c2=O)cc1O [Ivacaftor, reference compound]				improvement of lung function ([3]; taken by mouth, CF with ivacaftor-responsive mutations): about 10%
CC(=O)N[C@@H](CS)C(=O)O [NAC, N-acetylcysteine, reference compound]				efficacy with respect to improvement of lung function or reduction in pulmonary exacerbations ([3]; inhaled, CF and COPD): do not support the efficacy
NCCSSCCN [cystamine, reference compound]		prevented accumulation of viscous mucus and improves mucociliary clearance		
B1				clinical benefit ([3]; inhaled, adult CF subjects): substantial clinical benefits; efficacy ([3]; obstructive diseases other than CF): ineffective
